# Measurements published in publication PMC8518066, “Efficient Entropy‐Driven Inhibition of Dipeptidyl Peptidase III by Hydroxyethylene Transition‐State Peptidomimetics” (Chemistry (Weinheim an Der Bergstrasse, Germany), 2021).
# Positions count from the first letter of the chain named. Read-outs that look alike come from different tables or passages of the source.
# Key:
# hDPP3 [1] = target: T1, hDPP3 (Homo sapiens, UniProt Q9NY33); assay: Fluorescence-based competitive enzyme inhibition assay (degradation of H-Arg-Arg-βNA substrate); assay type: biochemical; details: for IC50: hDPP3, H-Arg-Arg-βNA substrate, 37 °C, pH 8.0
# T1 construct: His6 (cleaved yes); made in house; host or cells: E. coli BL21-CodonPlus (DE3) RIL
# T1 sequence (Q9NY33 1-726): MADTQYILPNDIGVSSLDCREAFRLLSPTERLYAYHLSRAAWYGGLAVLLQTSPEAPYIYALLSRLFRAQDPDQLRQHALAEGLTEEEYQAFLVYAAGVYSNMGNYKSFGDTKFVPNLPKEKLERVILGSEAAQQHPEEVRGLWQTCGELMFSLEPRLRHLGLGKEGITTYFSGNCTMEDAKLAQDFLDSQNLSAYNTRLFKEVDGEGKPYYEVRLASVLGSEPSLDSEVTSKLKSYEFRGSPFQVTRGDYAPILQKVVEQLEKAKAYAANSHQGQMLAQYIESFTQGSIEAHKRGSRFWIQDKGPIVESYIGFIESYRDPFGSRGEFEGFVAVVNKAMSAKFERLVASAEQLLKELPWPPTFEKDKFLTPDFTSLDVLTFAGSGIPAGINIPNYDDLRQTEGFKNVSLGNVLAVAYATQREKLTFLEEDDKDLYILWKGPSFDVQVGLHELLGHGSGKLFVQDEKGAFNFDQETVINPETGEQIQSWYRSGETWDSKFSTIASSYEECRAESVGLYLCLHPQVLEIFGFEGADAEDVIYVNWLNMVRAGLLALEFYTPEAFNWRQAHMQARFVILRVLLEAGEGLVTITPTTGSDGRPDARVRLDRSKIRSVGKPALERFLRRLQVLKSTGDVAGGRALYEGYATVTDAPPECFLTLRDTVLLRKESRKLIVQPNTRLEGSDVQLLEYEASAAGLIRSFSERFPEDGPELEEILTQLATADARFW
# placental DPP3 = tested on: placental DPP3; design: method as in PMID 9711218; details: placental DPP3, H-Arg-Arg-βNA substrate; cited from earlier work
# Mammalian DPP3 = tested on: Mammalian DPP3; design: method as in PMID 7931295, PMID 9425109; details: cited from earlier work
# [2] = tested on: DPP3 in mouse brain homogenate; assay: Ex vivo DPP3 inhibition in mouse brain homogenate; assay type: biochemical; details: Figure SI1
# [3] = target: T2, hDPP3 (inactive variant E451A) (Homo sapiens, UniProt Q9NY33, E451A); assay: Isothermal titration calorimetry (ITC); assay type: binding; details: mean of three independent measurements; for Kd: hDPP3 E451A, 298 K
# T2 construct: His6 (cleaved yes); made in house; host or cells: E. coli BL21-CodonPlus (DE3) RIL
# T2 sequence (Q9NY33 1-726 E451A): T1 sequence (Q9NY33 1-726) with E451A
# hDPP3 [4] = target: T1, hDPP3; assay: Time-dependent inhibition of hDPP3 by tynorphin and HER; assay type: biochemical; details: inhibitor at 5 times IC50, room temperature, 0-24 h
# hDPP3 [5] = target: T1, hDPP3; assay: Thermal shift assay (Thermofluor); assay type: binding; details: 10 µM hDPP3, 50 µM HER
molecule,measurement,setting,value
CC(C)[C@H](N)C(=O)N[C@@H](C(C)C)[C@H](O)C[C@@H](Cc1ccc(F)cc1)C(=O)N1CCC[C@H]1C(=O)N[C@@H](Cc1c[nH]c2ccccc12)C(=O)O,melting point,,168 to 170 °C
Cc1ccc(C[C@H](C[C@@H](O)[C@@H](NC(=O)[C@@H](N)C(C)C)C(C)C)C(=O)N2CCC[C@H]2C(=O)N[C@@H](Cc2c[nH]c3ccccc23)C(=O)O)cc1,melting point,,160 to 162 °C
CC(C)[C@H](N)C(=O)N[C@@H](C(C)C)[C@H](O)C[C@@H](Cc1ccc(O)cc1)C(=O)N1CCC[C@H]1C(=O)N[C@@H](Cc1c[nH]c2ccccc12)C(=O)O,melting point,,172 to 174 °C
CC(C)[C@H](N)C(=O)N[C@@H](C(C)C)[C@H](O)C[C@@H](Cc1ccccc1)C(=O)N1CCCC[C@H]1C(=O)N[C@@H](Cc1c[nH]c2ccccc12)C(=O)O [37 a],IC50,hDPP3 [1],34.4 µM
same,melting point,,160 to 162 °C
CC(C)[C@H](NC(=O)[C@@H](N)C(C)(C)C)[C@H](O)C[C@@H](Cc1ccccc1)C(=O)N1CCCC[C@H]1C(=O)N[C@@H](Cc1c[nH]c2ccccc12)C(=O)O [37 b],melting point,,164 to 166 °C
"CC1C(=O)c2cc(O)c3c(c2C(O)C1O)C(=O)c1cccc(O)c1-3 (stereo not shown) [B, fluostatins A and B]",IC50,placental DPP3,74 µM
"O=c1oc(Cl)c(Cl)c2ccccc12 [DCI, 3,4‐dichloroisocoumarin]",inhibition of mammalian DPP3,Mammalian DPP3; covalently binding serine peptidase inhibitors,significantly inhibited
CC(C)C(N)C(=O)NC(C(C)C)C(O)CC(Cc1ccccc1)C(=O)N1CCCC1C(=O)NC(Cc1c[nH]c2ccccc12)C(=O)O (stereo not shown) [HER],potency relative to SHE (IC50 ratio),hDPP3 [1]; HER versus SHE,7 fold
same,IC50,hDPP3 [1],13.8 µM
same,inhibition of DPP3 in mouse brain homogenate,[2],efficiently inhibit DPP3 in mouse brain homogenate without losing much of its potency
same,Kd,[3],11 µM
same,-TΔS,[3],-16.0 kcal/mol
same,ΔH,[3],10.7 kcal/mol
same,time-dependent inhibition of hDPP3 (stability against the peptidase),hDPP3 [4],efficiently inhibit the activity over a period of 24 h
same,Melting temperature (Tm) of hDPP3+HER,hDPP3 [5]; t=0 h of incubation,57.5 °C
same,Melting temperature (Tm) of hDPP3+HER,hDPP3 [5]; t=24 h of incubation,57 °C
same,melting point,,148 to 152 °C
"O=S(=O)(F)Cc1ccccc1 [PMSF, phenylmethanesulfonylfluoride]",inhibition of mammalian DPP3,Mammalian DPP3,significantly inhibited
CC(C)[C@H](N)C(=O)N[C@@H](C(C)C)[C@@H](O)C[C@@H](Cc1ccccc1)C(=O)N1CCC[C@H]1C(=O)N[C@@H](Cc1c[nH]c2ccccc12)C(=O)O [SHE],IC50,hDPP3 [1],98.5 µM
same,Kd,[3],23 µM
same,-TΔS,[3],-8.1 kcal/mol
same,ΔH,[3],2.3 kcal/mol
"Cc1ccc(S(=O)(=O)N[C@@H](Cc2ccccc2)C(=O)CCl)cc1 [TPCK, tosyl‐phenylalanyl chloromethyl ketone]",inhibition of mammalian DPP3,Mammalian DPP3,significantly inhibited
COC(=O)[C@H](Cc1c[nH]c2ccccc12)NC(=O)[C@@H]1CCCN1C(=O)[C@H](Cc1ccc(O)cc1)C[C@@H](O)[C@@H](NC(=O)[C@@H](N)C(C)C)C(C)C [compound 32],IC50,hDPP3 [1],17.9 µM
same,melting point,,148 to 150 °C
Cc1cc(=O)c2c(cc(O)c3c4c(O)cccc4c(=O)c32)c1=O [fluostatins A],IC50,placental DPP3,1.44 µM
tynorphin [reference compound],time-dependent inhibition of hDPP3 (stability against the peptidase),hDPP3 [4],lost its efficacy within the first hour
